Values quoted from earlier work in PMC2984425, “Safety and pharmacokinetics of novel selective vascular endothelial growth factor receptor-2 inhibitor YN968D1 in patients with advanced malignancies” (BMC Cancer, 2010).

What was measured:
[1] = test system: advanced refractory solid tumors; settings: pooled analysis of 137 patients from 4 phase I trials; cited from earlier work
renal cell carcinoma = test system: renal cell carcinoma; design: method as in PMID 17215529; settings: first-line treatment for renal cell carcinoma; cited from earlier work
colorectal cancer = test system: colorectal cancer; design: method as in PMID 17947727; settings: 84 patients with colorectal cancer, monotherapy; cited from earlier work
[2] = test system: metastatic gastric cancer; design: method as in ref 16 = [16]; Moehler M Hartmann JT Lordick F Al-Batran S Reimer P Trarbach T Ebert M Daum S Weihrauch M Galle PR AIO Upper GI Group Sunitinib in patients with chemo-refractory metastatic gastric cancer: Preliminar; settings: of 52 patients, chemo-refractory metastatic gastric cancer; cited from earlier work

Row | SMILES | PR, % of patients [1] [%] | evaluable patients who achieved PR [1] | patients who had SD [1] | patients with signs of disease progression by radiological imaging [1] [%] | progression-free survival (PFS) (renal cell carcinoma) [months] | response rate (renal cell carcinoma) [%] | patients who achieved PR (colorectal cancer) | patients with stable disease (colorectal cancer) | patients who showed tumor control [2]
1 | CNC(=O)c1cc(Oc2ccc(NC(=O)Nc3ccc(Cl)c(C(F)(F)F)c3)cc2)ccn1 [sorafenib] | 1.4 | 2 | 38 | 70.8 | – | – | – | – | –
2 | CCN(CC)CCNC(=O)c1c(C)[nH]c(/C=C2\C(=O)Nc3ccc(F)cc32)c1C [sunitinib] | – | – | – | – | 11 | 31 | 1 | 13 | 5
